Test results: paper PMC9270327 (Communications Biology, 2022)
Values joined by “and” are separate entries in the source; they are usually repeats but may differ in a detail not shown here. Equal entries are not always repeated. Structures can show the parent of a compound that is named as a salt. Where two headings read alike, the source gives them in different places.

Experiments:
[1] = test system: lentiviral pseudoparticles carrying SARS-CoV-2 Wuhan-Hu-1 spike, Caco-2 cells; format: cell-based; conditions: for IC50: Caco-2 cells, luciferase 2 days post transduction, read-out: IC50 pseudotyped lentivirus Wuhan-Hu-1
[2] = test system: lentiviral pseudoparticles carrying SARS-CoV-2 Beta (B.1.351) spike, Caco-2 cells; format: cell-based; conditions: for IC50: Caco-2 cells, luciferase 2 days post transduction, read-out: IC50 pseudotyped lentivirus Beta; for SARS-CoV-2 spike driven entry, Mean (0 nM = 100): Fig. 5c
[3] = test system: lentiviral pseudoparticles carrying SARS-CoV-2 Omicron BA.1 (B.1.1.529) spike, Caco-2 cells; format: cell-based; conditions: for IC50: Caco-2 cells, luciferase 2 days post transduction, read-out: IC50 pseudotyped lentivirus Omicron BA.1
[4] = test system: SARS-CoV-2 Wuhan-Hu-1, Caco-2 cells; format: cell-based; conditions: for SARS-CoV-2 infection, Mean (0 nM = 100): Fig. 6a, Wuhan-Hu-1
[5] = test system: SARS-CoV-2 Alpha (B.1.1.7), Caco-2 cells; format: cell-based; conditions: for SARS-CoV-2 infection, Mean (0 nM = 100): Fig. 6c, VOC Alpha
Caco-2 cells = conditions: Fig. 6e
TMPRSS2 = TMPRSS2 (Homo sapiens, UniProt O15393); format: biochemical; parameters: purchased Creative BioMart (New York, USA) or LSBio (Seattle, USA); conditions: for TMPRSS2 activity, Mean (Fig. 2a): normalized, 0 nM = 100
TMPRSS2, sequence (O15393 whole entry): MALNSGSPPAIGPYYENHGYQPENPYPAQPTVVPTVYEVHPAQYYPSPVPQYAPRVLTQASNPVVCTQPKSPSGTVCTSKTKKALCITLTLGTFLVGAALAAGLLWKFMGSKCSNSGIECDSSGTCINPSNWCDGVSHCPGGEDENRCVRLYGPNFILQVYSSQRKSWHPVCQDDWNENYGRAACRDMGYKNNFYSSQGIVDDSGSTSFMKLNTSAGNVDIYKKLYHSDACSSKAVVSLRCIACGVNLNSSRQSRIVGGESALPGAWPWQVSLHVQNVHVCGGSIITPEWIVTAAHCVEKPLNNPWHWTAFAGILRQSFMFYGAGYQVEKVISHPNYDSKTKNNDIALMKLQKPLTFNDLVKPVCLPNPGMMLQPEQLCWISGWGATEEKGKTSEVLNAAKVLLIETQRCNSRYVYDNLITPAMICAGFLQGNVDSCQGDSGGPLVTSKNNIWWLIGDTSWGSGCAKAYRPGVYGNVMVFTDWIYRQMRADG
Source text: Recombinant human TMPRSS2 was purchased from Creative BioMart (New York, USA) or LSBio (Seattle, USA), factor Xa was obtained from Bio-Techne GmbH (Wiesbaden, Germany). Recombinant human thrombin and matriptase protein were purchased from R&D Systems (Minneapolis, MN, USA).

[6] = Fig. 5a, compound 20000 nM, […]
[7] = Fig. 5a, compound 100000 nM, […]
[8] = Fig. 5e, compound 10000 nM, […]
[9] = Fig. 5e, compound 50000 nM, […]
[10] = read-out: IC50 SARS-CoV-2 Wuhan-Hu-1
[11] = read-out: IC50 SARS-CoV-2 Wuhan-Hu-1 (text)
[12] = read-out: IC50 SARS-CoV-2 Alpha

`CN(C)C(=O)COC(=O)Cc1ccc(OC(=O)c2ccc(NC(=N)N)cc2)cc1` [CM, camostat mesylate, reference compound] was tested, and the “SARS-CoV-2 spike driven entry, Mean (0 nM = 100)” value (“SARS-CoV-2 spike driven entry” below) [1] was 90.0332, the IC50 [1] was 748 nM and ~748 nM and the “SARS-CoV-2 spike driven entry” value ([1]; Fig. 5a, compound 160 nM, […]) was 75.4652. For the same compound, the “SARS-CoV-2 spike driven entry” value ([1]; Fig. 5a, compound 800 nM, […]) was 52.9188, the “SARS-CoV-2 spike driven entry” value ([1]; Fig. 5a, compound 4000 nM, […]) was 17.6822 and the “SARS-CoV-2 spike driven entry” value [1, 6] was 3.857. For the same compound, the “SARS-CoV-2 spike driven entry” value [1, 7] was 2.478, the IC50 [2] was 156 nM and the “SARS-CoV-2 spike driven entry” value ([2]; compound 3.2 nM) was 69.473. The “SARS-CoV-2 spike driven entry” value ([2]; compound 16 nM) was 73.209, the “SARS-CoV-2 spike driven entry” value ([2]; compound 80 nM) was 64.2815 and the “SARS-CoV-2 spike driven entry” value ([2]; compound 400 nM) was 45.014. The “SARS-CoV-2 spike driven entry” value ([2]; compound 2000 nM) was 20.732, the “SARS-CoV-2 spike driven entry” value ([2]; compound 10000 nM) was 4.9565 and the “SARS-CoV-2 spike driven entry” value ([2]; compound 50000 nM) was 3.2315. For the same compound, the “SARS-CoV-2 spike driven entry” value [3] was 47.6902 and 69.3145 and 95.2747, the IC50 [3] was 77.6 nM and the “SARS-CoV-2 spike driven entry” value ([3]; Fig. 5e, compound 400 nM, […]) was 26.7078. For the same compound, the “SARS-CoV-2 spike driven entry” value ([3]; Fig. 5e, compound 2000 nM, […]) was 11.5722, the “SARS-CoV-2 spike driven entry” value [3, 8] was 6.102 and the “SARS-CoV-2 spike driven entry” value [3, 9] was 4.574. It also gave an IC50 [4, 10] of 3620 nM, an IC50 [4, 11] of 3600 nM and an IC50 [5, 12] of 16400 nM. For the same compound, the IC50 ([5]; read-out: IC50 SARS-CoV-2 Alpha (text)) was 16400 nM, the “Cell viability, Mean (0 nM = 100)” value (Caco-2 cells; compound 0.26 nM) was 104.56 and the “Cell viability, Mean (0 nM = 100)” value (Caco-2 cells; compound 1.28 nM) was 104.124. For the same compound, the “Cell viability, Mean (0 nM = 100)” value (Caco-2 cells; compound 6.4 nM) was 104.38, the “Cell viability, Mean (0 nM = 100)” value (Caco-2 cells; compound 32 nM) was 101.009 and the “Cell viability, Mean (0 nM = 100)” value (Caco-2 cells; compound 160 nM) was 106.562. For the same compound, the “Cell viability, Mean (0 nM = 100)” value (Caco-2 cells; compound 800 nM) was 101.849, the “Cell viability, Mean (0 nM = 100)” value (Caco-2 cells; compound 4000 nM) was 104.127 and the “Cell viability, Mean (0 nM = 100)” value (Caco-2 cells; compound 20000 nM) was 103.706. The “Cell viability, Mean (0 nM = 100)” value (Caco-2 cells; compound 100000 nM) was 93.2448, the “TMPRSS2 activity, Mean (Fig. 2a)” value (TMPRSS2; 0.05 nM) was 101.705 and the “TMPRSS2 activity, Mean (Fig. 2a)” value (TMPRSS2; 0.5 nM) was 66.4773. For the same compound, the “TMPRSS2 activity, Mean (Fig. 2a)” value (TMPRSS2; 5 nM) was 16.1932, the “TMPRSS2 activity, Mean (Fig. 2a)” value (TMPRSS2; 50 nM) was 0.2841 and the “TMPRSS2 activity, Mean (Fig. 2a)” value (TMPRSS2; 500 nM) was 0.5682. For the same compound, the “TMPRSS2 activity, Mean (Fig. 2a)” value (TMPRSS2; 5000 nM) was -0.142, the “TMPRSS2 activity, Mean (Fig. 2a)” value (TMPRSS2; 50000 nM) was 0.2841 and the “TMPRSS2 activity, Mean (Fig. 2a)” value (TMPRSS2; 500000 nM) was -0.4261.

With ace-Arg-Pro-Arg-kbt [Compound 2] the “SARS-CoV-2 spike driven entry” value [1] was 93.4665, the IC50 [1] was 1620 nM and the “SARS-CoV-2 spike driven entry” value ([1]; Fig. 5a, compound 160 nM, […]) was 93.5815. The “SARS-CoV-2 spike driven entry” value ([1]; Fig. 5a, compound 800 nM, […]) was 73.183, the “SARS-CoV-2 spike driven entry” value ([1]; Fig. 5a, compound 4000 nM, […]) was 22.027 and the “SARS-CoV-2 spike driven entry” value [1, 6] was 3.879. The “SARS-CoV-2 spike driven entry” value [1, 7] was 2.5725, the IC50 [2] was 434 nM and the “SARS-CoV-2 spike driven entry” value ([2]; compound 3.2 nM) was 86.789. For the same compound, the “SARS-CoV-2 spike driven entry” value ([2]; compound 16 nM) was 76.3745, the “SARS-CoV-2 spike driven entry” value ([2]; compound 80 nM) was 81.347 and the “SARS-CoV-2 spike driven entry” value ([2]; compound 400 nM) was 58.1085. The “SARS-CoV-2 spike driven entry” value ([2]; compound 2000 nM) was 24.7225, the “SARS-CoV-2 spike driven entry” value ([2]; compound 10000 nM) was 3.543 and the “SARS-CoV-2 spike driven entry” value ([2]; compound 50000 nM) was 0.923. The “SARS-CoV-2 spike driven entry” value [3] was 80.0549 and 94.4227 and 98.8201, the IC50 [3] was 431 nM and the “SARS-CoV-2 spike driven entry” value ([3]; Fig. 5e, compound 400 nM, […]) was 52.4269. The “SARS-CoV-2 spike driven entry” value ([3]; Fig. 5e, compound 2000 nM, […]) was 20.742, the “SARS-CoV-2 spike driven entry” value [3, 8] was 5.628 and the “SARS-CoV-2 spike driven entry” value [3, 9] was 3.26. The “SARS-CoV-2 infection, Mean (0 nM = 100)” value ([4]; compound 32 nM) was 97.173, the “SARS-CoV-2 infection, Mean (0 nM = 100)” value ([4]; compound 160 nM) was 99.3408 and the “SARS-CoV-2 infection, Mean (0 nM = 100)” value ([4]; compound 800 nM) was 95.9056. For the same compound, the “SARS-CoV-2 infection, Mean (0 nM = 100)” value ([4]; compound 4000 nM) was 58.4381, the “SARS-CoV-2 infection, Mean (0 nM = 100)” value ([4]; compound 20000 nM) was 1.12 and the “SARS-CoV-2 infection, Mean (0 nM = 100)” value ([4]; compound 100000 nM) was -2.857. For the same compound, the IC50 [4, 10] was 4570 nM, the IC50 [4, 11] was 4600 nM and the “SARS-CoV-2 infection, Mean (0 nM = 100)” value ([5]; compound 32 nM) was 106.285. For the same compound, the “SARS-CoV-2 infection, Mean (0 nM = 100)” value ([5]; compound 160 nM) was 107.747, the “SARS-CoV-2 infection, Mean (0 nM = 100)” value ([5]; compound 800 nM) was 109.671 and the “SARS-CoV-2 infection, Mean (0 nM = 100)” value ([5]; compound 4000 nM) was 112.829. For the same compound, the “SARS-CoV-2 infection, Mean (0 nM = 100)” value ([5]; compound 20000 nM) was 1.3092, the “SARS-CoV-2 infection, Mean (0 nM = 100)” value ([5]; compound 100000 nM) was -2.734 and the IC50 [5, 12] was ~20000 nM. For the same compound, the “TMPRSS2 activity, Mean (Fig. 2a)” value (TMPRSS2; 0.05 nM) was 92, the “TMPRSS2 activity, Mean (Fig. 2a)” value (TMPRSS2; 0.5 nM) was 90.3158 and the “TMPRSS2 activity, Mean (Fig. 2a)” value (TMPRSS2; 5 nM) was 62.9474. For the same compound, the “TMPRSS2 activity, Mean (Fig. 2a)” value (TMPRSS2; 50 nM) was 19.7895, the “TMPRSS2 activity, Mean (Fig. 2a)” value (TMPRSS2; 500 nM) was 3.789 and the “TMPRSS2 activity, Mean (Fig. 2a)” value (TMPRSS2; 5000 nM) was 0.6316. For the same compound, the “TMPRSS2 activity, Mean (Fig. 2a)” value (TMPRSS2; 50000 nM) was 0.4211, the “TMPRSS2 activity, Mean (Fig. 2a)” value (TMPRSS2; 500000 nM) was -1.895 and the Ki (TMPRSS2; 30 min preincubation, substrate Boc-Gln-Ala-Arg-AMC, Ki from IC50 by Cheng–Prusoff) was 3.8 nM. For the same compound, the “fold more active than FOY-251 against isolated TMPRSS2” value (TMPRSS2; ratio of Ki values) was 2–3 fold.
